Experimental data: patent US20090023645A1, “AIB1, a novel steroid receptor co-activator” (The Government of the United States of America as …, priority 1997, published 2009)

Key:
[1] = system: ER; assay: transient transfection ER reporter (luciferase) transcription assay in COS-1 cells; assay type: cell-based; conditions: 100 nM 4-hydroxytamoxifen in place of 17β-estradiol
Protocol: COS-1 cells were transiently transfected with 250 ng ER expression vector (pHEGO-hyg), 10 ng of luciferase reporter plasmid (pGL3.luc.3ERE or 10 ng pGL3 lacking ERE) and increasing amounts of pcDNA3.1-AIB1 and incubated in the absence (open bars) or presence of 10 nM 17β-stradiol (E2, solid bars) or 100 nM 4-hydroxytamoxifen (hatched bars). Luciferase activity was expressed in relative luminescence units (RLU). The data are the mean of three determinations from one of four replicate experiments. Error bars indicate one standard deviation.
To determine whether expression of AIB1 increases ER ligand-dependent transactivation, transient transfection assays were performed. The effect of increasing levels of AIB1 on transcription of an ER dependent reporter was measured. […] This effect was not observed when the estrogen antagonist, 4-hydroxytamoxifen (4-OHT), was substituted for 17β-estradiol or when the estrogen response element (ERE) was removed from the reporter plasmid (FIG. 3).
To determine the effect of AIB1 on estrogen-dependent transcription, an ER reporter plasmid can be used. […] Reporter activities were determined using the Dual-Luciferase Reporter Assay System (Promega) and the results expressed in relative luminescence units (RLU; luciferase/Renilla luciferase). pRL-CMV and pGL3-promoter were obtained from Promega. pHEGO-hyg was obtained from ATCC. […]

[2] = system: recurrent breast cancer; assay: response to tamoxifen therapy in patients with recurrent breast cancer and ER-positive primary tumors; assay type: in vivo
Protocol: Loss of estrogen receptor in recurrent breast caner is also associated with poor response to endocrine therapy. […] The frequency of hormone receptor status changes between primary and recurrent tumors and whether such a change might explain unresponsiveness to endocrine therapy was examined. Primary breast cancer samples and matched asynchronous recurrences were studied from 50 patients who had not received any adjuvant therapy. ER and progesterone receptor (PR) status was determined immunohistochemically from histologically representative formalin-fixed paraffin-embedded tumor samples. ER status was ascertained by mRNA in situ hybridization. Thirty-five (70%) of 50 primary tumors were positive for ER and 30 (60%) for PR. Hormone receptor status of the recurrent tumor differed from that of the primary tumor in 18 cases (36%). Discordant cases were due to the loss of ER (n=6), loss of PR (n=6), or loss of both receptors (n=6). Receptor-negative primary tumors were always accompanied by receptor-negative recurrences. Among 27 patients with ER-positive primary tumors, loss of ER was a significant predictor (P=0.0085) of poor response to subsequent endocrine therapy. […] Loss of ER expression in recurrent breast cancer predicts poor response to endocrine therapy in primarily ER-positive patients.

[3] = system: metastatic tumor; assay: tamoxifen treatment of a patient whose metastatic breast tumor showed high AIB1 copy number; assay type: in vivo; conditions: one post-menopausal patient, ER/PR positive metastatic tumor with high AIB1 copy number

| Molecule | AIB1 dose dependent increase in transcription when the ligand is substituted for 17β-estradiol [1] | response rate to tamoxifen therapy ([2]; patients whose recurrent tumors retained ER expression (14 of 19)) [%] | response rate to tamoxifen therapy ([2]; patients with lost ER expression in the recurrent tumor (one of eight)) [%] | patient response to tamoxifen treatment [3] |
| --- | --- | --- | --- | --- |
| 4-hydroxytamoxifen | not observed |  |  |  |
| CC/C(=C(\c1ccccc1)c1ccc(OCCN(C)C)cc1)c1ccccc1 [tamoxifen] |  | 74 | 12.5 | responded favorably |
